# Read-outs that look alike come from different tables or passages of the source. In the oligonucleotide strings, read from the 5' end, every base follows the letter of its sugar. An asterisk marks phosphorothioate; unmarked linkages are phosphodiester. Other units and linkages are bracketed, terminal groups are in braces. A string of capitals states the bases alone. d = 2'-deoxy (DNA)
# Legend:
# [1] = tested on: HMGA1 expression levels in AsPC-1 cells; assay: Western blot of HMGA1 expression levels in AsPC-1 nuclear extracts; format: cell-based, Human; conditions: AsPC-1, 100 nM gemcitabine, 48 hours
# Experimental: Cytoplasmic and nuclear protein extracts were prepared from pancreatic cancer cells using NE-PER extraction kit (Thermo Scientific, Rockford, Ill.). Protein concentrations were determined using a bicinchoninic acid assay with bovine serum albumin as a standard. Nuclear proteins that contained 25 or 15 μg total protein were separated by SDS-PAGE with a 4%-20% Criterion gradient gel (Bio-Rad Laboratories, Inc., Hercules, Calif.). The proteins were transferred to immuno-blot PVDF membrane (0.2 μm) (Bio-Rad Laboratories, Inc., Hercules, Calif.) and blocked in 5% dry milk in PBS supplemented with 0.2% Tween 20 (PBST). The PVDF membranes were then probed with 1:1000 dilution of rabbit anti-HMGA1 antibody (Santa Cruz Biotechnology Inc, Santa Cruz, Calif.) and 1:100 dilution of rabbit anti-HMGA2 antibody (Abcam plc, Cambridge, Mass.), in 3% BSA in PBST at 4° C. overnight. After three washes with PBST, the membrane was blotted with secondary antibody, ant-rabbit IgG-HRP (cell signaling) 1:5000 dilution in 1% dry milk in PBST at room temperature for 1 hour. An enhanced chemiluminescence detection (ECL, GE Healthcare Life Sciences, Piscataway, N.J.) system was used to detect target proteins. To ensure equal loading of the proteins between groups, membranes were re-probed with anti-TATA binding protein antibody (Abcam plc, Cambridge, Mass.). […] The control was nuclear extract from untreated cells. Triplicates of each sample were run on the gel and analyzed with the Alpha Imager. The relative HMGA1 densities were obtained by dividing HMGA 1 density by TBP density. […] TATA binding protein (TBP) was used as a loading control. […] HMGA1 expression levels were examined after transfection with CG-sDNA or AT-sDNA to determine if the transfection procedure affected HMGA1 expression levels. The AT-sDNA used for transfection contained an 18 adenine/thymine stretch enabling HMGA1 to bind the DNA with all three AT-hooks. As a negative control, a non-HMGA1-targeted sDNA containing an equal length of DNA but with no AT-stretches, i.e. CG-sDNA, was used. […]
# AsPC-1 cells [2] = assay: Cell growth with gemcitabine treatment after sDNA transfection, AsPC-1; format: cell-based, Human; conditions: for Fold change in numbers of viable cells normalized relative to TC: AsPC-1, 0.1 ug sDNA
# Experimental: (§1) Cells were fixed after 96 hours and numbers of viable cells counted by measuring the absorbance at 570 nm.
# (§2) Cells were transfected with 0.1 μg of TC-sDNA, Mix-sDNA, CG-sDNA, and AT-sDNA.
# Miapaca-2 cells [3] = assay: Cell growth with gemcitabine treatment after sDNA transfection, Miapaca-2; format: cell-based, Human; conditions: 96 hours; for Fold change in numbers of viable cells normalized relative to TC: Miapaca-2, 0.1 ug sDNA
# Experimental: as §1, §2
# AsPC-1 cells [4] = assay: Cell growth with gemcitabine treatment after sDNA transfection, AsPC-1; format: cell-based, Human; conditions: for Fold change in numbers of viable cells, TC cells with gemcitabine: AsPC-1, TC (no sDNA), 96 hours
# Miapaca-2 cells [5] = assay: Cell growth with gemcitabine treatment after sDNA transfection, Miapaca-2; format: cell-based, Human; conditions: for IC50: Homo sapiens, MIA PaCa-2, 96 h
# Miapaca-2 cells [6] = assay: Cell viability (crystal violet) after sDNA transfection, Miapaca-2; format: cell-based, Human; conditions: for cells dead compared to UT: versus untransfected (UT) cells
# Experimental: The absorbance was measured at 570 nm in quadruplicate. All data from control cells were combined and averaged.
# AsPC-1 cells [7] = conditions: for cells dead compared to UT: versus untransfected (UT) cells
# Experimental: AsPC-1 cells were grown in Roswell Park Memorial Institute medium supplemented with 10% FBS, and 1% penicillin-streptomycin.
# Transfections using sDNA at concentrations of 0.1 and 0.25 μg per well were conducted with 5×10^4 and 1×10^5 Miapaca-2 and AsPC-1 cells, respectively, in 24-well plates and all data were collected in quadruplicate. Miapaca-2 and AsPC-1 cells were transfected with sDNA using Lipofectamine 2000 (Invitrogen,™ Life Technologies Corporation, Carlsbad, Calif.) according to the manufacturer's protocol.
# Briefly, AsPC-1 cells grown in 10% FBS containing RPIM medium were trypsinized using a trypsin-EDTA solution commercially available from the Sigma-Aldrich, and used to seed fresh media in a 24-well plate with 10^5 cells per well.
# After 48 hours, the cells were transfected with the selected sDNA using Lipofectamine 2000 (Invitrogen,™ Life Technologies Corporation, Carlsbad, Calif.) according to the manufacturer's protocol. […] The cells were then fixed with 4% paraformaldehyde in PBS for 20 minutes and stained in 0.1% crystal violet stain (Sigma-Aldrich) for 30 minutes. The cells were washed under running tap water, air dried, and extracted with 0.2% Triton™ X-100 for 30 minutes. […] The absorbance of the Triton X-100 was measured at 570 nm using a HTS microplate reader. All results were analyzed for statistical significance using a student's unpaired t-test.
# [8] = Miapaca-2, 0.1 μg sDNA, 96 h after transfection
# [9] = AsPC-1, 0.1 μg sDNA, 96 h after transfection
molecule,measurement,setting,value
"Nc1ccn([C@@H]2O[C@H](CO)[C@@H](O)C2(F)F)c(=O)n1 [Gemcitabine, gemcitabine]",change in HMGA1 expression levels after gemcitabine,[1],no change
same,"Fold change in numbers of viable cells, TC cells with gemcitabine","AsPC-1 cells [2]; AsPC-1, TC (no sDNA), Gemcitabine 30 nM, 96 hours",−1.04 fold
same,IC50,"AsPC-1 cells [2]; Homo sapiens, ASPC1, 96 h, read-out: Gemcitabine IC50 in transfection control (TC) cells, AsPC-1, TC (no sDNA), 0.1 μg column, 96 hours",28 nM
same,"Fold change in numbers of viable cells, TC cells with gemcitabine","Miapaca-2 cells [3]; Miapaca-2, TC (no sDNA), Gemcitabine 30 nM",−3.21 fold
same,"Fold change in numbers of viable cells, TC cells with gemcitabine",AsPC-1 cells [4]; Gemcitabine 10 nM,−1.02 fold
same,"Fold change in numbers of viable cells, TC cells with gemcitabine",AsPC-1 cells [4]; Gemcitabine 100 nM,−1.36 fold
same,"Fold change in numbers of viable cells, TC cells with gemcitabine",AsPC-1 cells [4]; Gemcitabine 1000 nM,−1.52 fold
same,IC50,"AsPC-1 cells [4]; Homo sapiens, ASPC1, 96 h, read-out: Gemcitabine IC50 in transfection control (TC) cells, AsPC-1, TC (no sDNA), 0.25 μg column, 96 hours",24.8 nM
same,IC50,"Miapaca-2 cells [5]; read-out: Gemcitabine IC50 in transfection control (TC) cells, Miapaca-2, TC (no sDNA), 0.1 μg column, 96 hours",11.9 ± 1.2 nM
same,IC50,"Miapaca-2 cells [5]; read-out: Gemcitabine IC50 in transfection control (TC) cells, Miapaca-2, TC (no sDNA), 0.25 μg column, 96 hours",21.5 ± 0.6 nM
same,"change in cell viability, TC cells","Miapaca-2 cells [5]; Miapaca-2, TC (no sDNA), 1 nM gemcitabine, 96 hours",no significant change
same,"cells surviving, TC cells","Miapaca-2 cells [5]; Miapaca-2, TC (no sDNA), 10 nM gemcitabine, 96 hours",77.1%
same,"Fold change in numbers of viable cells, TC cells with gemcitabine","Miapaca-2 cells [5]; Miapaca-2, TC (no sDNA), Gemcitabine 1 nM, 96 hours",1.00 fold
same,"Fold change in numbers of viable cells, TC cells with gemcitabine","Miapaca-2 cells [5]; Miapaca-2, TC (no sDNA), Gemcitabine 10 nM, 96 hours",−1.30 fold
same,"Fold change in numbers of viable cells, TC cells with gemcitabine","Miapaca-2 cells [5]; Miapaca-2, TC (no sDNA), Gemcitabine 100 nM, 96 hours",−3.59 fold
same,"Fold change in numbers of viable cells, TC cells with gemcitabine","Miapaca-2 cells [5]; Miapaca-2, TC (no sDNA), Gemcitabine 1000 nM, 96 hours",−3.47 fold
"Mix-sDNA: random phosphorothioate DNA (SEQ ID NO: 13), control lacking a HMGA-specific binding sequence (DNA dC*dC*dC*dA*dC*dT*dG*dC*dA*dG*dT*dC*dG*dG*dA*dC*dT*dC*dA*dC*dT*dC*dG*dC)",cells dead compared to UT,"Miapaca-2 cells [6]; Miapaca-2, 0.1 ug sDNA, 48 hrs",30.4%
same,Fold change in numbers of viable cells between TC and sDNA transfected cells (in parentheses),Miapaca-2 cells [6]; [8],(1.07) fold
same,Fold change in numbers of viable cells between UT and transfected cells,Miapaca-2 cells [6]; [8],−1.45 fold
same,cells dead compared to UT,"Miapaca-2 cells [6]; Miapaca-2, 0.1 ug sDNA, 96 hrs",33.3%
same,difference in cell viability between TC cells and sDNA transfected cells,"Miapaca-2 cells [6]; Miapaca-2, 0.1 ug sDNA, both 48 and 96 hours",no significant differences
same,Fold change in numbers of viable cells normalized relative to TC,"AsPC-1 cells [2]; Gemcitabine 0 nM, 96 hours",−1.14 fold
same,Fold change in numbers of viable cells normalized relative to TC,"AsPC-1 cells [2]; Gemcitabine 1 nM, 96 hours",−1.06 fold
same,Fold change in numbers of viable cells normalized relative to TC,"AsPC-1 cells [2]; Gemcitabine 10 nM, 96 hours",−1.16 fold
same,Fold change in numbers of viable cells normalized relative to TC,"AsPC-1 cells [2]; Gemcitabine 30 nM, 96 hours",−1.17 fold
same,Fold change in numbers of viable cells normalized relative to TC,"AsPC-1 cells [2]; Gemcitabine 100 nM, 96 hours",−1.36 fold
same,Fold change in numbers of viable cells normalized relative to TC,"AsPC-1 cells [2]; Gemcitabine 1000 nM, 96 hours",−1.59 fold
same,cells dead / change in cell viability,"Miapaca-2 cells [3]; Miapaca-2, 0.1 μg sDNA, 1 nM gemcitabine",no significant change
same,cells surviving,"Miapaca-2 cells [3]; Miapaca-2, 0.1 μg sDNA, 10 nM gemcitabine, normalized to 0 nM gemcitabine",94.5%
same,Fold change in numbers of viable cells normalized relative to TC,Miapaca-2 cells [3]; Gemcitabine 0 nM,1.07 fold
same,Fold change in numbers of viable cells normalized relative to TC,Miapaca-2 cells [3]; Gemcitabine 10 nM,1.01 fold
same,Fold change in numbers of viable cells normalized relative to TC,Miapaca-2 cells [3]; Gemcitabine 30 nM,−2.65 fold
same,Fold change in numbers of viable cells normalized relative to TC,Miapaca-2 cells [3]; Gemcitabine 100 nM,−4.41 fold
same,Fold change in numbers of viable cells normalized relative to TC,Miapaca-2 cells [3]; Gemcitabine 1000 nM,−4.48 fold
same,cells dead compared to UT,"AsPC-1 cells [7]; AsPC-1, 0.1 ug sDNA, 48 hrs",28.0%
same,Fold change in numbers of viable cells between TC and sDNA transfected cells (in parentheses),AsPC-1 cells [7]; [9],(−1.14) fold
same,Fold change in numbers of viable cells between UT and transfected cells,AsPC-1 cells [7]; [9],−1.24 fold
same,cells dead compared to UT,"AsPC-1 cells [7]; AsPC-1, 0.1 ug sDNA, 96 hrs",19.4%
same,difference in cell viability between TC cells and sDNA transfected cells,"AsPC-1 cells [7]; AsPC-1, 0.1 ug sDNA, both 48 and 96 hours",no significant differences
same,Fold change in numbers of viable cells normalized relative to TC,"Miapaca-2 cells [5]; Miapaca-2, 0.1 ug sDNA, Gemcitabine 1 nM, 96 hours",1.12 fold

# — patent publication US9492470B2, “Use of HMGA-targeted phosphorothioate DNA aptamers to suppress carcinogenic activity and increase sensitivity to chemotherapy agents in human cancer cells” (MIAMI UNIVERSITY, priority 2012, dated 2016)
